The values below come from publication PMC12749748, “Chemically-induced degradation of the endoplasmic-reticulum stress sensor IRE1 by a VHL-recruiting chimera” (Nature Communications, 2025).

Values joined by “and” are separate entries in the source; they are usually repeats but may differ in a detail not shown here. Equal values may be shown once. “Also recorded” adds a separate entry of the source.

Test [1] deals with IRE1 (Homo sapiens, UniProt O75460). Put plainly: Immunoblot of endogenous IRE1 depletion in AMO1 cells. Further details: Immunoblot (IB) analysis of endogenous IRE1 depletion in AMO1 cells; endogenous in cells; host or cells: AMO1. It is filed as cell-based. The procedure:
(§1) Cells were lysed in buffer containing 20 mM HEPES 7.2, 150 mM NaCl, and 1% Triton X-100, supplemented with fresh protease and phosphatase inhibitors (Invitrogen, #78440), cleared by centrifugation at 12,000 × g for 10 min, and analyzed by BCA protein assay (Thermo Fisher Scientific, #23227). Equal protein amounts were loaded, separated by SDS-PAGE, electrotransferred to nitrocellulose membranes using the iBLOT2 system (Invitrogen), and blocked in 5% nonfat milk solution for 60 min. Membranes were probed with primary antibodies at 1:1000 dilution in 5% milk at 4 °C overnight. Signal was detected using appropriate horseradish peroxidase (HRP)-conjugated secondary antibodies at 1:10,000 in 5% milk at room temperature for 1–2 h. Bands were visualized by the Azure 600 western blot imaging system (Azure Biosystems). For in vitro ubiquitination assays performed with Me-Ub, bands were visualized by the Odyssey CLx Imager (LI‑COR) after incubating the blots with the IRDye 800CW (LI-COR) secondary antibodies at 1:10,000 in Intercept Blocking Buffer (LI-COR) at room temperature for 1–2 h.
A general note: In western blotting, separated proteins are transferred to a membrane and probed.

Test [2] has as its target T1, IRE1 (Homo sapiens, UniProt O75460+P40337).
T1 construct: N2731 (HaloTag-VHL); host or cells: HEK293T
Nature of the test: NanoLuc signal IRE1 depletion, WT IRE1-NanoLuc, HEK293T cells. The class given is cell-based. The procedure: 8 × 10^5 293T cells per well were seeded in 6-well plates (Costar, #3516) and incubated at 37 °C, 5% CO2 for 6 h. A mixture of 0.2 µg ERN1 (IRE1)-NanoLuc Fusion Vector (Promega, NV1321), 2 µg HaloTag-VHL Fusion Vector (Promega, N2731), 6 µl FuGENE HD Transfection Reagent (Promega, E2311), and 100 µL Opti-MEM I reduced serum medium (Gibco, #31985062) per well was incubated at room temperature for 20 min before adding to cells. For expression of IRE1 mutants, site-directed mutagenesis was performed using the ERN1-NanoLuc Fusion Vector as the DNA template, and the transfection mixture was prepared in the same way as WT IRE1. After 18 h, cells from 6-well plates were trypsinized, resuspended in Opti-MEM I reduced serum medium, and reseeded into 96-well plates (Costar, #3917), with or without the addition of HaloTag NanoBRET 618 Ligand (Promega, G9801). After 18 h of incubation, a titration of G6374 (dilutions made in Opti-MEM I reduced serum medium) was added to the cells. After 2 h of G6374 treatment, NanoBRET Nano-Glo Substrate (Promega, N1571) was added to cells. The 96-well plates were imaged by GloMax Discover Microplate Reader (Promega, GM3000) with the default “BRET: NanoBRET 618” protocol (Donor: 450 BP; Acceptor: 600 LP; Integration: 0.3 s). Data analysis was performed according to the user manual.

In test [3] the test system is VCB. Nature of the test: Fluorescence polarization displacement of FAM-labeled HIF-1α peptide from VCB. It is filed as binding. The note with it: ratio between IC50 of VCB: G6374 and VCB: (G6374 + IRE1). The protocol:
(§2) Assays were performed in duplicates on ProxiPlate-384 F Plus (Revvity, #6008260) with a total well volume of 16 µL. Each well contained 50 nM of FAM-labeled HIF-1α peptide (FAM-DEALA-Hyp-YIPD, biotechne, #7287), 500 nM of VCB protein, and a titration of G6374 (2-fold serial dilutions from […] to 625 nM, then 1.3-fold serial dilutions to 284.5 nM, followed by 2-fold serial dilutions to 8.9 nM) or IRE1.KR:G6374 (constant concentration of 2.4 µM IRE1.KR and the same serial dilution of G6374 as mentioned above) in 50 mM HEPES pH 7.2, 100 mM NaCl, 1 mM TCEP, and 0.002% Tween 20 with a final concentration of DMSO of 1.5%. The plate was incubated at room temperature in the dark, first for 5 min on a shaker at 300 rpm, then for another 30 min on the bench. FP was measured using the EnVision Multimode Plate Reader (PerkinElmer) with fluorescence excitation and emission wavelengths of 480 nm and 535 nm. The percentage of HIF-1α displacement was calculated by normalization to maximum fluorescence anisotropy (or 0% displacement of the HIF-1α peptide) and minimum fluorescence anisotropy (or 100% displacement of the HIF-1α peptide), which were determined by “top” and “bottom” values of the curve fit of fluorescence anisotropy against G6374 concentration in GraphPad Prism 10 (GraphPad Software, Inc.). The IC50 values were then determined by curve fitting with the percentage of HIF-1α displacement against G6374 concentration in GraphPad Prism 10 (GraphPad Software, Inc.).

Test [4] addresses VCB (Homo sapiens, UniProt P40337). Described as above. It is filed as binding. The procedure: as §2
In the next test the target is IRE1:VHL (Homo sapiens, UniProt O75460+P40337). Nature of the test: co-IP of endogenous VHL with endogenous IRE1 from AMO1 cells. The class given is cell-based. Further details: co-IP of endogenous VHL with endogenous IRE1 from AMO1 cells; endogenous in cells; host or cells: AMO1. The note with it: titration of G6374. The procedure: as §1
Chain of IRE1:VHL (O75460 19-977): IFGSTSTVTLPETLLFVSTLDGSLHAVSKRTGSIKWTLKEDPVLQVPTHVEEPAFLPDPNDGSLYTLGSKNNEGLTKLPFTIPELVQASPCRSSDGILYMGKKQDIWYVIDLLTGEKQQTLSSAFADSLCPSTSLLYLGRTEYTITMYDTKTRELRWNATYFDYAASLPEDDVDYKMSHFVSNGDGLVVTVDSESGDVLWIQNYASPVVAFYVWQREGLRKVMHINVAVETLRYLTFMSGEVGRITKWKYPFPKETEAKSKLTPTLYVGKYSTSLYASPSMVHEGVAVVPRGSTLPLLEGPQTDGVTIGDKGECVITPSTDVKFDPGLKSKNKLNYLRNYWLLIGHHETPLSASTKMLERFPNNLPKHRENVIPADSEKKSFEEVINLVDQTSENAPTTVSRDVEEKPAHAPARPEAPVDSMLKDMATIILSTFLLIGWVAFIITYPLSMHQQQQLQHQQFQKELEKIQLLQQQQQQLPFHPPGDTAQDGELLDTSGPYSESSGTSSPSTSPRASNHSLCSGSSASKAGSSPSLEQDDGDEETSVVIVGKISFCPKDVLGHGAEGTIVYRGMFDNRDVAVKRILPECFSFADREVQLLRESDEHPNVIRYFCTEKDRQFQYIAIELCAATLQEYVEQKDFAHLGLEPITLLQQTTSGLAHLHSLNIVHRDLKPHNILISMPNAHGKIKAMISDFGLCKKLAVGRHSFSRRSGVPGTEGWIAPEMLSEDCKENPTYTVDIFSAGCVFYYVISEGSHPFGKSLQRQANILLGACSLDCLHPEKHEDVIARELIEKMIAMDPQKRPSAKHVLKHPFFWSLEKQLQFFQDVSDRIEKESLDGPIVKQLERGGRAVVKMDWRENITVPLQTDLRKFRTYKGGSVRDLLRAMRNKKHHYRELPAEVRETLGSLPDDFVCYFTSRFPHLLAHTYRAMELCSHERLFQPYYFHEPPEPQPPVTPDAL
Chain of IRE1:VHL (P40337 whole entry): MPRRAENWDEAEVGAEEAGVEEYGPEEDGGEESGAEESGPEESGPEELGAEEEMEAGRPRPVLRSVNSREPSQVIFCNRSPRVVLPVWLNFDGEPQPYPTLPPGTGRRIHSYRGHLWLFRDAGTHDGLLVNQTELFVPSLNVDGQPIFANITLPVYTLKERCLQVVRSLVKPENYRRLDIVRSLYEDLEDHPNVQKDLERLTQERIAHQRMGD
Chain of IRE1:VHL (Q15369 whole entry partner): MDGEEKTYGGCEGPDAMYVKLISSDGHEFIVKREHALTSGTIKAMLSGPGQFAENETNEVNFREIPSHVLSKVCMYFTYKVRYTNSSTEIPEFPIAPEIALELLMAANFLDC
Chain of IRE1:VHL (Q15370 whole entry partner): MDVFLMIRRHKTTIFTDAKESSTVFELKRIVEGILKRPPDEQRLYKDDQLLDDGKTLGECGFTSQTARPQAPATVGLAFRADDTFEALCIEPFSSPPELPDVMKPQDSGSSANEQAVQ
Chain of IRE1:VHL (Q13617 whole entry partner): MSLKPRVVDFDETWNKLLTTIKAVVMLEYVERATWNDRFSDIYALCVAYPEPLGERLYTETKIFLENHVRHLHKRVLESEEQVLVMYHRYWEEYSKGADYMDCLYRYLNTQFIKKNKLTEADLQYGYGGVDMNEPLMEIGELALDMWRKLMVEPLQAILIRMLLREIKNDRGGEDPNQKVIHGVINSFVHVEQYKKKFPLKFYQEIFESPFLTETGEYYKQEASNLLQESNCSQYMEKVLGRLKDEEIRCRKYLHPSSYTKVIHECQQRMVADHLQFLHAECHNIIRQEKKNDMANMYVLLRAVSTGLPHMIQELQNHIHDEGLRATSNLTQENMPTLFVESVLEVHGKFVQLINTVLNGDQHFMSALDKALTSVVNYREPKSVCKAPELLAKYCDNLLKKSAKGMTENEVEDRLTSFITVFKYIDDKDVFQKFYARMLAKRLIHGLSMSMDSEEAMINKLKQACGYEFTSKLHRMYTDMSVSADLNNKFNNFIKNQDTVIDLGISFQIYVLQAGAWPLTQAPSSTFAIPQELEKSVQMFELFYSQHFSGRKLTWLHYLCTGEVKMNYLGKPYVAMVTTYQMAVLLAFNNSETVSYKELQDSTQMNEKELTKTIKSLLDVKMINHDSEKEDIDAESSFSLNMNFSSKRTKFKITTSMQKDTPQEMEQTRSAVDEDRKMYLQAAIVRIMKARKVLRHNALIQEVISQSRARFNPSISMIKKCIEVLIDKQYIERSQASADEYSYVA
Chain of IRE1:VHL (P62877 whole entry partner): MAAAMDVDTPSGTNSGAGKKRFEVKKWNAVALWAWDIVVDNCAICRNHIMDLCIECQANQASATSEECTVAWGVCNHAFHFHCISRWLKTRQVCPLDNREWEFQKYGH
IRE1.LD antibodies were conjugated to agarose beads using the AminoLink® Plus Immobilization Kit (Thermo Fisher, #44894). […]

Setting [5] is: AMO1 cells, 17 h, immunoblot quantification, n = 4, mean ± SEM.

By IC50 is commonly meant the midpoint of a concentration-inhibition curve.

Chain of IRE1 (Homo sapiens, UniProt O75460) (O75460 19-977): as the sequence (O75460 19-977) above
T1 sequence (O75460 19-977): as above
T1 sequence (P40337 whole entry): as the sequence (P40337 whole entry) above
T1 sequence (Q15369 whole entry partner): as the sequence (Q15369 whole entry partner) above
T1 sequence (Q15370 whole entry partner): as the sequence (Q15370 whole entry partner) above
T1 sequence (Q13617 whole entry partner): as the sequence (Q13617 whole entry partner) above
T1 sequence (P62877 whole entry partner): as the sequence (P62877 whole entry partner) above
Chain of VCB (Homo sapiens, UniProt P40337) (Q15370 whole entry): as the sequence (Q15370 whole entry partner) above
Chain of VCB (Homo sapiens, UniProt P40337) (Q15369 17-112, further chain): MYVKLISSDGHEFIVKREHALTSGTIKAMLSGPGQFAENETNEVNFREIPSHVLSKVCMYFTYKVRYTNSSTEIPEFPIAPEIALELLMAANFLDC
Chain of VCB (Homo sapiens, UniProt P40337) (P40337 55-213): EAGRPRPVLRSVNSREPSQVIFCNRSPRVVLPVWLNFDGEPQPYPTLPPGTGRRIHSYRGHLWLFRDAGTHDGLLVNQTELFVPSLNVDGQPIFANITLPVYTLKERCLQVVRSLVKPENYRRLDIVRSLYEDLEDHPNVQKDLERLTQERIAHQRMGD

`Cc1ncsc1-c1ccc(CNC(=O)[C@@H]2C[C@@H](O)CN2C(=O)[C@@H](NC(=O)CCCCN2CCN([C@H]3CC[C@H](Nc4ncc5ccc(=O)n(C(C)C)c5n4)CC3)CC2)C(C)(C)C)cc1` [G6374]: the “IRE1 depletion under ER stress (thapsigargin or tunicamycin)” value on IRE1 [1] (AMO1 and KMS27 cells, G6374 3 µM, 2 hr, Tg 100 nM or Tm 5 µg/ml, 6 hr) is on record as “did not encumber G6374-driven IRE1 depletion”. For the same compound, the “IRE1 depletion over a time course” value at IRE1 [1] (AMO1 cells, 1 µM, 0-8 h) is “reaches near maximum levels by 4 hr; also recorded: near complete IRE1 depletion by 4 h”. The DC50 at IRE1 [1] (setting [5]) was 40 nM; at IRE1 [2] (estimated), 130 nM. Further, the Dmax on IRE1 [1] (setting [5]) is 93%; on IRE1 [2] (HEK-293T, 2 h, n = 3, mean ± SEM) it was 78%. Moreover, in the test with VCB [3], the Cooperativity alpha was 5 and 5 ± 0.15. The IC50 at VCB [4] (G6374 alone, absence of IRE1, N=3, mean ± SEM) came out at 2480 ± 112 nM; at VCB [4] (G6374 in the presence of saturating IRE1 (2.4 µM), N=3, mean ± SEM), 492 ± 21 nM. Also, the “induced IRE1:VHL interaction (co-IP)” value on IRE1:VHL is “induced a much stronger interaction between the two proteins”.
